Laboratory results reported in PubChem BioAssay (NCI).
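All cell lines were grown in 96-well plates and treated with compound for 48 hours. TGI marks complete inhibition of growth.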

Key:
Test in all cases: DTP human tumour cell line panel, 48 h
KM12 colon = tested on: KM12 colon
HCT-15 colon = tested on: HCT-15 colon
CAKI-1 renal = tested on: CAKI-1 renal
OVCAR-5 ovarian = tested on: OVCAR-5 ovarian
HT29 colon = tested on: HT29 colon
SF-295 CNS = tested on: SF-295 CNS
SNB-19 CNS = tested on: SNB-19 CNS
786-0 renal = tested on: 786-0 renal
NCI-H23 lung = tested on: NCI-H23 lung
SF-268 CNS = tested on: SF-268 CNS
TK-10 renal = tested on: TK-10 renal
SK-MEL-5 melanoma = tested on: SK-MEL-5 melanoma
SNB-75 CNS = tested on: SNB-75 CNS
NCI-H226 lung = tested on: NCI-H226 lung
OVCAR-3 ovarian = tested on: OVCAR-3 ovarian
A549 NSCLC = tested on: A549 NSCLC
MOLT-4 leukemia = tested on: MOLT-4 leukemia
BT-549 breast = tested on: BT-549 breast
LOX IMVI melanoma = tested on: LOX IMVI melanoma
CCRF-CEM leukemia = tested on: CCRF-CEM leukemia
SK-MEL-2 melanoma = tested on: SK-MEL-2 melanoma
DU-145 prostate = tested on: DU-145 prostate
SN12C renal = tested on: SN12C renal
SR leukemia = tested on: SR leukemia
SF-539 CNS = tested on: SF-539 CNS
PC-3 prostate = tested on: PC-3 prostate
RPMI-8226 leukemia = tested on: RPMI-8226 leukemia
MDA-MB-435 = tested on: MDA-MB-435
ACHN renal = tested on: ACHN renal
UO-31 renal = tested on: UO-31 renal
RXF 393 renal = tested on: RXF 393 renal
MDA-N = tested on: MDA-N
SW-620 colon = tested on: SW-620 colon
HOP-62 NSCLC = tested on: HOP-62 NSCLC
NCI-H522 lung = tested on: NCI-H522 lung
NCI-H460 lung = tested on: NCI-H460 lung
HCC-2998 colon = tested on: HCC-2998 colon
NCI/ADR-RES ovarian = tested on: NCI/ADR-RES ovarian
HCT-116 colon = tested on: HCT-116 colon
OVCAR-4 ovarian = tested on: OVCAR-4 ovarian
EKVX NSCLC = tested on: EKVX NSCLC
A498 renal = tested on: A498 renal
SK-OV-3 ovarian = tested on: SK-OV-3 ovarian
U251 CNS = tested on: U251 CNS
UACC-257 melanoma = tested on: UACC-257 melanoma
MALME-3M melanoma = tested on: MALME-3M melanoma
T-47D breast = tested on: T-47D breast
K-562 leukemia = tested on: K-562 leukemia
HS 578T breast = tested on: HS 578T breast
SK-MEL-28 melanoma = tested on: SK-MEL-28 melanoma
MCF7 breast = tested on: MCF7 breast
UACC-62 melanoma = tested on: UACC-62 melanoma
M14 melanoma = tested on: M14 melanoma
MDA-MB-231 breast = tested on: MDA-MB-231 breast
IGROV1 ovarian = tested on: IGROV1 ovarian
OVCAR-8 ovarian = tested on: OVCAR-8 ovarian
COLO 205 colon = tested on: COLO 205 colon
HL-60(TB) leukemia = tested on: HL-60(TB) leukemia
HOP-92 NSCLC = tested on: HOP-92 NSCLC

SMILES: O=C([C@H](O)[C@@H](O)c1ccc(Br)cc1)C12CC3CC(CC(C3)C1)C2
- TGI (KM12 colon): > 74.9 µM
- TGI (HCT-15 colon): > 75 µM
- TGI (CAKI-1 renal): 59.2 µM
- TGI (OVCAR-5 ovarian): > 72.9 µM
- TGI (HT29 colon): > 61.9 µM
- TGI (SF-295 CNS): 47.1 µM
- TGI (SNB-19 CNS): > 90.4 µM
- TGI (786-0 renal): 45.9 µM
- TGI (NCI-H23 lung): > 37.9 µM
- TGI (SF-268 CNS): > 70.6 µM
- TGI (TK-10 renal): > 47.8 µM
- TGI (SK-MEL-5 melanoma): > 56.2 µM
- TGI (SNB-75 CNS): 8.2 µM
- TGI (NCI-H226 lung): > 85.7 µM
- TGI (OVCAR-3 ovarian): 32.4 µM
- TGI (A549 NSCLC): 97 µM
- TGI (MOLT-4 leukemia): > 100 µM
- TGI (BT-549 breast): 24 µM
- TGI (LOX IMVI melanoma): > 100 µM
- TGI (CCRF-CEM leukemia): > 30.8 µM
- TGI (SK-MEL-2 melanoma): > 31.6 µM
- TGI (DU-145 prostate): 51.8 µM
- TGI (SN12C renal): > 65.8 µM
- TGI (SR leukemia): > 100 µM
- TGI (SF-539 CNS): > 28.7 µM
- TGI (PC-3 prostate): 24.5 µM
- TGI (RPMI-8226 leukemia): > 100 µM
- TGI (MDA-MB-435): > 56.4 µM
- TGI (ACHN renal): > 54.1 µM
- TGI (UO-31 renal): > 55.2 µM
- TGI (RXF 393 renal): > 100 µM
- TGI (MDA-N): > 100 µM
- TGI (SW-620 colon): > 38.4 µM
- TGI (HOP-62 NSCLC): 26.6 µM
- TGI (NCI-H522 lung): > 57.7 µM
- TGI (NCI-H460 lung): 16.1 µM
- TGI (HCC-2998 colon): > 38.9 µM
- TGI (NCI/ADR-RES ovarian): > 57.1 µM
- TGI (HCT-116 colon): > 51.9 µM
- TGI (OVCAR-4 ovarian): > 100 µM
- TGI (EKVX NSCLC): > 76.9 µM
- TGI (A498 renal): 32.5 µM
- TGI (SK-OV-3 ovarian): > 75.2 µM
- TGI (U251 CNS): > 36.4 µM
- TGI (UACC-257 melanoma): > 43.3 µM
- TGI (MALME-3M melanoma): 51.4 µM
- TGI (T-47D breast): > 29.3 µM
- TGI (K-562 leukemia): > 100 µM
- TGI (HS 578T breast): > 85.9 µM
- TGI (SK-MEL-28 melanoma): > 68.6 µM
- TGI (MCF7 breast): > 39.7 µM
- TGI (UACC-62 melanoma): 25.8 µM
- TGI (M14 melanoma): 37.5 µM
- TGI (MDA-MB-231 breast): > 43 µM
- TGI (IGROV1 ovarian): 12.9 µM
- TGI (OVCAR-8 ovarian): > 100 µM
- TGI (COLO 205 colon): > 40.2 µM
- TGI (HL-60(TB) leukemia): > 26.5 µM

SMILES: O=C(c1ccc(Cl)cc1)N(Cc1cccnc1)C(=S)N(Cc1cccnc1)C(=O)c1ccc(Cl)cc1
- TGI (KM12 colon): > 100 µM
- TGI (HCT-15 colon): > 100 µM
- TGI (CAKI-1 renal): > 100 µM
- TGI (OVCAR-5 ovarian): > 100 µM
- TGI (HT29 colon): 76.9 µM
- TGI (SF-295 CNS): > 100 µM
- TGI (SNB-19 CNS): > 100 µM
- TGI (786-0 renal): 48.2 µM
- TGI (NCI-H23 lung): > 100 µM
- TGI (SF-268 CNS): 79.5 µM
- TGI (TK-10 renal): > 100 µM
- TGI (SK-MEL-5 melanoma): 90.1 µM
- TGI (SNB-75 CNS): > 100 µM
- TGI (NCI-H226 lung): > 100 µM
- TGI (OVCAR-3 ovarian): > 100 µM
- TGI (A549 NSCLC): > 100 µM
- TGI (MOLT-4 leukemia): > 100 µM
- TGI (BT-549 breast): 51 µM
- TGI (LOX IMVI melanoma): 47.4 µM
- TGI (CCRF-CEM leukemia): > 100 µM
- TGI (SK-MEL-2 melanoma): 49 µM
- TGI (DU-145 prostate): > 100 µM
- TGI (SN12C renal): 48.1 µM
- TGI (SR leukemia): > 100 µM
- TGI (SF-539 CNS): 50.4 µM
- TGI (PC-3 prostate): 90.3 µM
- TGI (RPMI-8226 leukemia): > 100 µM
- TGI (MDA-MB-435): > 100 µM
- TGI (ACHN renal): > 100 µM
- TGI (HOP-92 NSCLC): > 100 µM
- TGI (UO-31 renal): 98.4 µM
- TGI (RXF 393 renal): > 100 µM
- TGI (MDA-N): 56.6 µM
- TGI (SW-620 colon): > 100 µM
- TGI (HOP-62 NSCLC): > 100 µM
- TGI (NCI-H522 lung): 69.1 µM
- TGI (NCI-H460 lung): > 100 µM
- TGI (HCC-2998 colon): 61.3 µM
- TGI (NCI/ADR-RES ovarian): > 100 µM
- TGI (HCT-116 colon): 80.3 µM
- TGI (OVCAR-4 ovarian): 79.7 µM
- TGI (EKVX NSCLC): > 100 µM
- TGI (A498 renal): 91.5 µM
- TGI (SK-OV-3 ovarian): > 100 µM
- TGI (U251 CNS): 53.6 µM
- TGI (UACC-257 melanoma): > 100 µM
- TGI (MALME-3M melanoma): > 100 µM
- TGI (T-47D breast): > 100 µM
- TGI (K-562 leukemia): > 100 µM
- TGI (HS 578T breast): > 100 µM
- TGI (SK-MEL-28 melanoma): > 100 µM
- TGI (MCF7 breast): > 100 µM
- TGI (UACC-62 melanoma): > 100 µM
- TGI (M14 melanoma): 59.7 µM
- TGI (MDA-MB-231 breast): 59.3 µM
- TGI (OVCAR-8 ovarian): 85.3 µM
- TGI (COLO 205 colon): 43.4 µM
- TGI (HL-60(TB) leukemia): 85.2 µM
